Test results published in patent publication US20060104902A1, “Method of preselection patients for anti-VEGF, anti-HIF-1 or anti-thioredoxin therapy” (priority 2004, published 2006).

Experiments:
HT-29 xenografts = settings: up to three hours post-treatment; cited from earlier work
human VEGF (hVEGF) = assay: Human VEGF ELISA in HT-29 xenograft tumors after PX-12; type: in vivo, SCID mice; settings: PX-12 25 mg/kg ip
Method: (§1) FIG. 12. Human VEGF levels (pg/μg protein) in HT-29 xenografts, and VEGF levels (pg/ml) in plasma after treatment with PX-12, 25 mg/kg ip (n=4 mice per time point).
(§2) VEGF detection. Plasma was collected into EDTA tubes and tumors were removed and immediately snap frozen in liquid nitrogen. Tumors were then placed in buffer (10 mM Tris/HCl pH 7.4, and 100 mM NaCl) and homogenized using a PowerGen 125, Fisher Scientific, Pittsburgh, Pa. The suspension was then centrifuged twice at 8,000×g at 4° C. for 15 min. Protein was quantitated in supernatant using the Pierce BCA assay. VEGF levels were quantitated in plasma and tumor lysates using both human (hVEGF) and mouse VEGF […] ELISAs (R&D systems, Minneapolis, Minn.), according the manufactures' instructions.
(§3) This example illustrates the effects of PX-12 on plasma and tumor VEGF levels, as measured by ELISA assays. In these xenografts, hVEGF is derived from the tumor and mVEGF from the host vasculature and stromal tissue, resulting in considerably higher hVEGF than mVEGF in the tumor. Although the endothelium is mouse derived, hVEGF inhibition in xenograft models has been reported to cause obliteration of the host tumor vasculature, implying that hVEGF is active at mouse VEGF receptors VEGFRI (Flt-i) and VEGFR2 (KDR). Therefore, levels of both mouse and human VEGF were measured in the tumor and plasma samples collected.

mouse VEGF (mVEGF) = assay: Mouse VEGF ELISA in tumor and plasma of HT-29 xenograft mice after PX-12; type: in vivo, SCID mice
Method: as §1, §2, §3
Some tumors are reported to secrete VEGF into the plasma which can then act on endothelial cells in a paracrine manner or on tumor cells in an autocrine loop if the tumor expresses the VEGF receptors VEGFRI or VEGFR2. Plasma hVEGF expression was too low to be detected in the plasma from the HT-29 xenografts.

human tumor xenografts = settings: cited from earlier work
HT-29 tumor xenografts = assay: DCE-MRI with Gd-BSA: tumor vascular permeability and vascular volume fraction; type: in vivo, SCID mice
Trx-1 = molecular target: T1, Trx-1 (Homo sapiens, UniProt P10599); settings: cited from earlier work
T1 sequence (P10599 1-105): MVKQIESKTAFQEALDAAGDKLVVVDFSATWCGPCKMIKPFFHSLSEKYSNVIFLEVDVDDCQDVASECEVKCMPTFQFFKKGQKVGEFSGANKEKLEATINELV

advanced malignancies = settings: cited from earlier work
current tumor model = settings: by 24 h post-treatment; cited from earlier work
hypoxic cells = settings: cited from earlier work

## COc1ccc(/C=C\c2cc(OC)c(OC)c(OC)c2)cc1OP(=O)(O)O [CA4P, combretastatin A4 phosphate]
HT-29 xenografts
  tumor perfusion: only a small decrease

## Cc1ccc2c(=O)c3cccc(CC(=O)O)c3oc2c1C [DMXAA]
HT-29 xenografts
  tumor perfusion: considerably decreased

## CCC(C)SSc1ncc[nH]1 (stereo not shown) [PX-12, 1-methylpropyl 2-imidazolyl disulfide]
Human VEGF (hVEGF); 2 or 12 hours post-treatment
  tumor VEGF levels: no significant change
Human VEGF (hVEGF); after 24 hours of treatment
  hVEGF levels within the tumors: significant decrease
Mouse VEGF (mVEGF); 2 hours post treatment, PX-12 25 mg/kg ip
  mouse plasma VEGF levels: showed a decrease
Mouse VEGF (mVEGF); after 24 h of PX-12 treatment, 25 mg/kg ip, P<0.02
  mouse VEGF in plasma: significant decrease
Mouse VEGF (mVEGF); starting at 2 h, not statistically significant at any time point, PX-12 25 mg/kg ip
  mouse VEGF in tumor: only a small decrease
Human tumor xenografts; human tumor xenografts in SCID mice
  in vivo antitumor activity: in vivo antitumor activity
Human tumor xenografts; xenograft tumors
  expression of HIF 1α and VEGF and microvessel density: significant decreases
HT-29 tumor xenografts; 12 hours after PX-12 treatment
  mean reduction in permeability: 59.2%
HT-29 tumor xenografts; 24 h post-treatment with PX-12
  mean reduction in permeability: 51.6%
HT-29 tumor xenografts; 48 hours after PX-12, not significant
  change in permeability (return to control values): +3.4±17.6%
HT-29 tumor xenografts; any time point (2-48 h) after PX-12
  vascular volume fraction of the tumor, control vs treated: not significantly modified
HT-29 tumor xenografts; within 2 hours after PX-12 injection
  mean reduction in tumor blood vessel permeability vs untreated tumors: 63.4%
Trx-1
  concentrations at which active as a Trx-1 inhibitor: submicromolar
Advanced malignancies; as soon as 4 hours post drug administration
  circulating levels of VEGF in patients: decrease
Advanced malignancies; patients with advanced malignancies
  antitumor activity in phase I study: revealed antitumor activity

## Cc1[nH]c(/C=C2\C(=O)Nc3ccccc32)c(C)c1CCC(=O)O [SU6668]
Current tumor model
  fractional plasma volume: decrease

## C[N+](C)([O-])CCCNc1c2ccccc2nc2cccc([N+](=O)[O-])c12 [aliphatic N-oxide of nitacrine]
Hypoxic cells
  selectivity for hypoxic cells: approximately 1500 fold

## Avastin: human anti-VEGF antibody Avastin (Bevacizumab, Genentech) [reference compound]
HT-29 tumor xenografts; 1 h post-Tx, HT-29, mean
  vascular volume fraction VVf (%): 4.4%
HT-29 tumor xenografts; one hour after injection, 20 μl/30 g i.v.
  decrease in vascular volume fraction: 31.5%
HT-29 tumor xenografts; within an hour of injection, 20 μl/30 g i.v.
  decrease in vascular permeability: 75%
